Measured values published in patent US20180008688A1, “METHOD AND COMPOSITIONS FOR ENHANCING IMMUNOTHERAPEUTIC TREATMENT OF A CANCER” (Augusta University Research Institute, Inc., priority 2016, published 2018).

Legend:
[1] = test system: p53; assay: p53 expression in mononuclear cells of tumors after systemic nutlin-3a (FACS); type: in vivo, mouse; settings: FIG. 7
Experimental: Antibody against the N-terminus of p53 (clone 1C12), used as in Watanabe et al., (2014) Immunity 40: 681-691, was from Cell Signaling Technology. Antibody against the C-terminus p53 (clone PAb122 (Gurney et al., (1980) J. Virol. 34: 752-763) was from Novus Biologicals. For both antibodies, staining was performed following permeablization with eBioscience fix-and-perm. Anti-phospho-p53(Ser15) (clone D4S1H) was from Cell Signaling Technology. For phospho-specific staining, cells were washed in PBS, fixed with 2% paraformaldehyde for 10 min at 37° C., pre-chilled for 1 min, then permeabilized by slow addition of ice-cold methanol to a final concentration of 90%. Cells were then incubated on ice for 30 min, washed with 1% FCS/PBS, blocked with the same solution for 10 min at room temperature, then for 1 h at room temperature and washed. Cells were acquired immediately after staining.
VO-OHpic was given at 10 mg/kg/day i.p., in 10% DMSO/PBS. Cyclophosphamide was given at 150 mg/kg i.p×1 dose. Oxaliplatin was given at 5 mg/kg i.p×1 dose. Nutlin-3a was dissolved at 2 mg/ml in 10% DMSO in buffered saline and administered daily at 10 mg/kg/day i.p. The 10 mg/kg/day dose was at the lower end of the parenteral dosing range described for mice (Zhang et al., (2011) Drug Meta. Dispos. 39: 15-21). […]

[2] = test system: B16-OVA tumors; assay: RIP-mOVA mice with OT-I cells and B16-OVA tumors, immunotherapy with or without nutlin-3a; type: in vivo
Experimental: It was then determined which of these opposing effects would prevail when the same antigen was both a tumor-antigen and self-antigen. RIP-mOVA mice expressing OVA as a self-antigen were implanted with B16-OVA tumors expressing OVA as a tumor antigen (Falo. Jr. et al., (1995) Nat. Med. 1: 649-653). Prior to tumor implantation, all mice received adoptive transfer of congenically-marked OT-I cells. After tumors were established, mice were treated with immunotherapy (PTEN-inhibitor plus chemotherapy), with or without nutlin-3a.
RIP-mOVA mice bearing B16-OVA tumors were treated with a cocktail of blocking antibodies against CTLA-4 plus PD-1, PD-L1 and PD-L2, with or without concurrent nutlin-3a.
Tumor implantation was performed as described (Sharma et al., (2007) J. Clin. Invest. 117: 2570-2582). VO-OHpic was given at 10 mg/kg/day i.p., in 10% DMSO/PBS. Cyclophosphamide was given at 150 mg/kg i.p×1 dose; and oxaliplatin at 5 mg/kg i.p×1 dose. Nutlin-3a was administered daily at 10 mg/kg/day i.p. For checkpoint blockade, mice received anti-CTLA-4 plus a cocktail of antibodies against the PD-1 pathway. Vaccines and T cell adoptive transfer studies were performed as described (Sharma et al., (2015) Sci. Advances. 1: e1500845).
The immune-activating effect of p53 is context-specific for the tumor milieu: The immunogenic effect of nutlin-3a seemed paradoxical because in most settings p53 is thought to be immunosuppressive (Munoz-Fontela et al., (2016) Nat. Rev. lmmunol. 16: 741-750; Thomasova et al., (2012) Neoplasia 14: 1097-1101). It was considered that p53 actually plays two roles in the immune system: a self-tolerance role in normal tissues during physiologic cell death (Yoon et al., (2015) Science 349: 1261669); but a pro-inflammatory role in certain specialized contexts such as immune-surveillance of tumors (Munoz-Fontela et al., (2016) Nat. Rev. lmmunol. 16: 741-750). To test this, a model in which OVA-expressing tumors were implanted in RIP-mOVA mice (which constitutively express OVA in pancreatic islet cells) was used. OVA thus became both a normal tissue antigen and a tumor antigen.

[3] = test system: T cells; assay: Purified T cells activated with anti-CD3/CD28 with nutlin, IL-12, MG-132; type: cell-based, mouse
Description: Regulation of p53 is complex, and it can be targeted by multiple pathways besides MDM2 (Chao C. C. (2015) Clin. Chim. Acta 438: 139-147). If IL-12 is rescuing T cells from nutlin, one possibility is that IL-12 might activate an alternative pathway of p53 degradation, not dependent on MDM2. To test this, purified T cells were activated (without any antigen-presenting cells or other cells) using anti-CD3/CD28 antibodies. T cells were activated in the presence or absence of nutlin with or without addition of recombinant IL-12.
Finally, to test the hypothesis that IL-12 targeted p53 for proteolytic degradation via an alternated pathway, proteasomal function was inhibited using MG-132. T cells were activated using immobilized CD3/CD28 as above. […] CFSE proliferation tracked inversely with p53 levels. […] While MG-132 affects many intracellular pathways besides p53, these findings support the basic hypothesis that IL-12 bypasses nutlin by targeting p53 for degradation via an alternative route.

[4] = test system: OT-I T cells; assay: OT-I T cells activated with cognate antigen and different antigen-presenting cells, with nutlin; type: cell-based, mouse
Description: Under normal circumstances the signal to downregulate p53 is provided by engagement of the T cell antigen receptor (TCR) that activates MDM2 and targets p53 for degradation (Watanabe et al., (2014) Immunity 40: 681-691).
To test whether the effect of Ly6c^+CD103^+ dendritic cells was due to IL-12, OT-I T cells were activated using 3 different types of antigen-presenting cells (APCs).
Consistent with this, when dendritic cells were sorted from TDLNs of IL-12-deficient mice (IL-12p40-KO), treated with the same immunotherapy regimen, these dendritic cells were unable to rescue T cells from nutlin. T cell proliferation tracked concordantly with p53 levels. In these experiments with dendritic cells from TDLNs, feeder populations were added to maintain functional activity.

[5] = nutlin added to checkpoint blockade
[6] = nutlin-3a 10 mg/kg/day added to CTX/VO-OHpic, FIG. 13
[7] = nutlin-3a 10 mg/kg/day added to CTX/VO-OHpic, FIG. 13, 10 mg/kg/day
[8] = nutlin, anti-CD3/CD28 activation
[9] = activation with cognate antigen

COc1ccc(C2=NC(c3ccc(Cl)cc3)C(c3ccc(Cl)cc3)N2C(=O)N2CCNC(=O)C2)c(OC(C)C)c1 (single isomer, unassigned; (-)) [nutlin-3a, (−)-4-(4,5-Bis(4-chlorophenyl)-2-(2-isopropoxy-4-methoxyphenyl)-4,5-dihydro-1H-imidazole-1-carbonyl)piperazin-2-one]
effect on p53 in remaining tumor cells (negative for CD11c/Ly6c/Gr 1) [1]: little effect
increase in p53 levels in CD11c+ cells and myeloid cells in tumors ([1]; systemic nutlin-3a, including Ly6c+CD11c^NEG myeloid precursors): 2-3 fold
Ly6c+CD103+ dendritic cells in the tumors [2, 5]: maintained expression
anti-tumor effect [2, 5]: significantly enhancing and prolonging the anti-tumor effect
autoimmune diabetes ([2]; nutlin added to checkpoint blockade (CTLA-4 plus PD-1, PD-L1, PD-L2 antibodies)): protected recipient subjects from autoimmune diabetes
p53 in OT-I T cells in pancreatic LNs ([2]; nutlin added to immunotherapy): increase p53
p53 in OT-I T cells in TDLNs ([2]; nutlin added to immunotherapy, same animals): complete loss of detectable p53 expression
anti-tumor effect [2, 6]: markedly enhanced the anti-tumor response
autoimmune diabetes [2, 6]: fully protected from diabetes
anti-tumor effect [2, 7]: enhanced and prolonged
autoimmune diabetes [2, 7]: protected the mice from lethal autoimmunity
T cell proliferation [3, 8]: suppressed proliferation of T cells
p53 levels in activated T cells [3, 8]: progressively restored, and then markedly elevated
p53 levels in activated T cells ([3]; nutlin, anti-CD3/CD28 activation, listed as Nutlin): blocked the down-regulation of p53
effect of nutlin on p53-deficient T cells ([3]; p53-deficient T cells): no inhibitory effect
down-regulation of p53 in OT-I T cells ([4]; CD11c+Ly6c+ dendritic cells from TDLNs of VO-OHpic+CTX treated mice as APCs): lost all ability to prevent down-regulation of p53
T cell proliferation [4, 9]: prevented T cell proliferation
total p53 in OT-I T cells [4, 9]: marked increase
down-regulation of p53 in OT-I T cells ([4]; dendritic cells from normal LNs as APCs): completely prevented
